Experimental data as given in US9017950B2, “Method for enhancing enzyme assays” (Luminescent MD, LLC, priority 2011, dated 2015).

Tests used:
Type in all cases: biochemical
[1] = biological target: T1, PSA detection antibody-HRP conjugate (Armoracia rusticana, UniProt P00433); assay: Quantification of PSA using PSA detection antibody-HRP conjugate and OD4MI CL detection (CLEIA) in the presence of catalyst
T1 construct: PSA detection antibody (conjugated)
T1 sequence (P00433 31-338 limits assumed): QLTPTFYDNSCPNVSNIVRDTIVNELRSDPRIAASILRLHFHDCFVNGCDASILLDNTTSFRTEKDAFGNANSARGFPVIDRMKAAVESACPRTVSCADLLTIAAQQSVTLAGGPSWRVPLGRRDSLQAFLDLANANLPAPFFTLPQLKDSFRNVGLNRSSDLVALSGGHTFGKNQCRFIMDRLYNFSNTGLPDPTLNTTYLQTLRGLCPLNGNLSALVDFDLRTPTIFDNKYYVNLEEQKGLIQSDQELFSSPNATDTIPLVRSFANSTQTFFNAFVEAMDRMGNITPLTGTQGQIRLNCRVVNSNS
Description: (§1) AccuLite® CLIA kit capable of quantifying PSA with luminol CL detection was used to develop new CLEIA method using ODI derivative CL detection. The kit is composed of 96 strip wells coated with monoclonal PSA primary antibody, PSA detection antibody-HRP conjugate, luminol as a substrate, reaction buffer, and washing buffer.
8 different PSA serum samples (0, 0.5, 1, 2, 5, 10, 25, 50 ng/ml), components of AccuLite® CLIA kit, were used as standard samples.
2.0 μM Amplex® Red reagent and 0.2 mM H2O2 in deionized water were prepared as described in Example 1 (A).
0.5 mM 4-Iodophenol was prepared in Tris-HCl buffer solution (pH 8.5).
2.0 mM 4-(1,2,4-triazol-1-yl) phenol was prepared in Tris-HCl buffer solution (pH 8.5).
0.8 ml of aqueous solution containing Amplex® Red reagent (2.0 μM) and H2O2 (0.2 mM) was mixed with 0.2 ml of 4-Iodophenol (or 2.0 mM 4-(1,2,4-triazol-1-yl) phenol).
(§2) OD4MI was formed from the reaction between 5.0 μM TCPO and 10.0 μM 4-Methylimidazole (4MImH) in Ethyl acetate. 100 mM H2O2 was prepared in Isopropyl alcohol.
• 12. Pipette 25 μl of PSA standard or test sample into a strip well. • 13. Add 100 μl of PSA detection antibody-HRP conjugate to the strip well • 14. Swirl the strip wells for 20 seconds. • 15. Incubate for 20 minutes at 37° C. • 16. Discard the contents of each strip wells. • 17. Wash each plate with 300 μl washing buffer. Repeat four additional times. • 18. Add 100 μl working solution containing 2.0 μM Amplex® Red reagent and 0.2 mM H2O2 to each strip well. • 19. Incubate the strip-well containing Amplex® Red reagent, H2O2, and 4-Iodophenol (or 2.0 mM 4-(1,2,4-triazol-1-yl) phenol) for 5.0 minutes at room temperature (21˜23° C.) in the dark. • 20. Pipette 10 μl of working solution into the assigned test tube (12×75 mm). • 21. Insert the test tube into a luminometer or the strip well into a microplate luminometer. • 22. Read (integration time: 0.5 seconds) emitted CL for 0.5 seconds when OD4MI and H2O2 are added into the test tube or strip well through two dispensers.

HRP = biological target: T2, HRP (Armoracia rusticana, UniProt P00433); assay: Enzyme assay with OD4MI CL detection to quantify HRP in the presence of surfactant; conditions: for dynamic range of enzyme assay for quantifying HRP compared with absence of surfactant: surfactant at critical micelle concentration
T2 construct: purchased Sigma
T2 sequence (P00433 31-338 limits assumed): T1 sequence (P00433 31-338 limits assumed)
Description: Various concentrations (0.5, 1.0, and 1.5%) of Triton® X surfactant derivatives (Triton® X-100, Triton® X-114, Triton® X-405, and Triton® X-705) were prepared in Tris-HCl buffer solution (pH 8.5).
Various surfactants (e.g., (2-Hydroxypropyl)-β-cyclodetrin, β-cyclodextrin, Carboxymethyl-β-cyclodextrin, Carbomethyl-β-cyclodextrin sodium salt, γ-cyclodextrin, Sodium dodecyl sulfate, Hexadecyltrimethylammonium bromide, Hexadecyltrimethylammonium chloride) of critical micelle concentration (CMC) were prepared in Tris-HCl buffer solution (pH 8.5).
As a substrate for ODI derivative CL detection, 2.0 μM Amplex® Red reagent in deionized water was prepared.
Various concentrations (0˜0.1 U/ml) of HRP containing 2.0 mM H2O2 was prepared in Tris-HCl buffer solution (pH 8.5).
1,1′-Oxalyldi-4-methyl-imidazole (OD4MI), one of ODI derivatives was formed from the reaction between 5.0 μM TCPO, and 10.0 μM 4-Methylimidazole (4MImH) in Ethyl acetate. 100 mM H2O2 was prepared in Isopropyl alcohol.
• 5. Mix and incubate 0.8 ml of Amplex® Red reagent (or deionized water), 0.1 ml of surfactant, one of various surfactants used in this research, and 0.1 ml of HRP containing H2O2 for 10 minutes in a 1.5 ml-centrifuge tube at room temperature. • 6. Pipette 10 μl of working solution into the assigned test tube (12×75 mm) or strip well. • 7. Insert the test tube into a luminometer or the strip well into a microplate luminometer. • 8. Read CL emitted when OD4MI and H2O2 are added into the test tube or strip well through two dispensers.

[2] = biological target: T3, AFP detection antibody-HRP conjugate (Armoracia rusticana, UniProt P00433); assay: Quantification of AFP using AFP detection antibody-HRP conjugate and OD4MI CL detection in the presence of Triton X-100; conditions: 0.1% Triton X-100, OD4MI CL detection, FIG. 6
T3 construct: AFP detection antibody (conjugated)
T3 sequence (P00433 31-338 limits assumed): T1 sequence (P00433 31-338 limits assumed)
Description: as §1, with “AFP” for “PSA”, “OD4MI” for “ODI derivative”, “detection in the presence of 0.1% Triton® X-100 surfactant.” for “detection.”
2.0 μM Amplex® Red reagent and 0.2 mM H2O2 in deionized water were prepared in water containing 0.1% Triton® X-100 surfactant.
as §2
• 12. Pipette 25 μl of AFP standard or test sample into a strip well. • 13. Add 100 μl of AFP detection antibody-HRP conjugate to the strip well • 14. Swirl the strip wells for 20 seconds. • 15. Incubate for 30 minutes at 37° C. • 16. Discard the contents of each strip wells. • 17. Wash each plate with 300 μl washing buffer. Repeat four additional times. • 18. Add 100 μl working solution containing 2.0 μM Amplex® Red reagent, 0.2 mM H2O2 and 0.1% Triton® X-100 surfactant in the strip well. • 19. […] Read (integration time: 0.5 seconds) emitted CL for 0.5 seconds when OD4MI and H2O2 are added into the test tube or strip well through two dispensers.

Row | Molecule | dynamic range of enzyme assay for quantifying HRP compared with absence of surfactant (HRP; OD4MI CL detection) | other results
1 | Oc1ccc(-n2cncn2)cc1 [4-(1,2,4-triazol-1-yl) phenol] |  | LOD, times lower than in the absence of catalyst [1]: ~10 times
2 | Oc1ccc(I)cc1 [4-Iodophenol] |  | LOD, times lower than in the absence of catalyst [1]: about 20 times; LOD, times lower than in the presence of 4-(1,2,4-triazol-1-yl) phenol [1]: about 2 times
3 | CCCCCCCCCCCCCCCC[N+](C)(C)C.[Br-] [Hexadecyltrimethylammonium bromide] | wider than that in the absence of surfactant | 
4 | CCCCCCCCCCCCCCCC[N+](C)(C)C.[Cl-] [Hexadecyltrimethylammonium chloride] | wider than that in the absence of surfactant | 
5 | CCCCCCCCCCCCOS(=O)(=O)[O-].[Na+] [Sodium dodecyl sulfate] | wider than that in the absence of surfactant | 
6 | OC[C@H]1O[C@@H]2O[C@H]3[C@H](O)[C@@H](O)[C@@H](O[C@H]4[C@H](O)[C@@H](O)[C@@H](O[C@H]5[C@H](O)[C@@H](O)[C@@H](O[C@H]6[C@H](O)[C@@H](O)[C@@H](O[C@H]7[C@H](O)[C@@H](O)[C@@H](O[C@H]8[C@H](O)[C@@H](O)[C@@H](O[C@H]1[C@H](O)[C@H]2O)O[C@@H]8CO)O[C@@H]7CO)O[C@@H]6CO)O[C@@H]5CO)O[C@@H]4CO)O[C@@H]3CO [β-cyclodextrin] | wider than that in the absence of surfactant | 
7 | OC[C@H]1O[C@@H]2O[C@H]3[C@H](O)[C@@H](O)[C@@H](O[C@H]4[C@H](O)[C@@H](O)[C@@H](O[C@H]5[C@H](O)[C@@H](O)[C@@H](O[C@H]6[C@H](O)[C@@H](O)[C@@H](O[C@H]7[C@H](O)[C@@H](O)[C@@H](O[C@H]8[C@H](O)[C@@H](O)[C@@H](O[C@H]9[C@H](O)[C@@H](O)[C@@H](O[C@H]1[C@H](O)[C@H]2O)O[C@@H]9CO)O[C@@H]8CO)O[C@@H]7CO)O[C@@H]6CO)O[C@@H]5CO)O[C@@H]4CO)O[C@@H]3CO [γ-cyclodextrin] | wider than that in the absence of surfactant | 
8 | (2-Hydroxypropyl)-β-cyclodetrin | wider than that in the absence of surfactant | 
9 | Carbomethyl-β-cyclodextrin sodium salt | wider than that in the absence of surfactant | 
10 | Carboxymethyl-β-cyclodextrin | wider than that in the absence of surfactant | 
11 | Triton® X-100 |  | dynamic range to quantify HRP compared with other Triton X derivatives (HRP; 1.0% surfactant, FIG. 5): wider than those in other Triton® X surfactant derivatives; effect on the reaction between Amplex Red reagent and H2O2 in the presence of HRP (HRP; OD4MI CL detection, FIG. 3 to 5): acting to interfere; dynamic range of enzyme assay to quantify HRP, upper end (HRP; higher Triton X-100 concentration, OD4MI CL detection, room temperature, FIG. 3): up to 0.1 U/ml; linear dynamic range for quantification of AFP [2]: 0˜1250 ng/ml
